Drawing on the NIST ThermoML archive (doi:10.1016/j.fluid.2015.04.022), this text covers viscosity and mass density for two molecules.

± gives the expanded uncertainty stated by the source.

The conditions of this series: 298.2 K, 101.33 kPa, Liquid; for viscosity: Falling or rolling sphere viscometry; for mass density: Vibrating tube method.

For the molecule `C=C(C)[C@H]1CC=C(C)CC1` [(R)-1-methyl-4-(1-methylethenyl)cyclohexene], the viscosity turned out to be 0.92 ± 0.12 mPa·s and the mass density was 841.35 ± 0.36 kg/m3.
Consider `C=CC(C)(O)CCC=C(C)C` (centres undefined) [3,7-dimethyl-1,6-octadien-3-ol], for which the viscosity is 4.57 ± 0.13 mPa·s and the mass density worked out at 857.38 ± 0.28 kg/m3.
